Where a SMILES comes first, the peptide text is derived from it.

One may read the pKa as the negative logarithm of the acid dissociation constant. Under “acidic group”, `CCCCOc1cccc(C(=O)O)c1` registered a pKa of 4.25. The same measure, in the same setting: in the case of `O=S(=O)([N-]c1ncccn1)c1ccc(O)cc1` it was 9.

Regarding `N[C@@H]1CCCC[C@@H]1N`, where the note is “basic group”, the pKa was 9.84. In the case of `Cc1cc(C)n(-c2cc(C)n(C)n2)n1`, under “basic group”, the pKa was determined as 2.19.

`[O-]c1nc([O-])c2[nH]nnc2[nH+]1`: the pKa (basic group) was 4.2. As for `CCCCc1cc(Cl)cc(Cl)c1O`, the pKa (acidic group) was found to be 8.1. `Nc1cccc2ncccc12`: the pKa (basic group) came out at 5.46. With `Oc1cccc2cccnc12`, the pKa runs as follows: (acidic group) 9.77; (basic group) 5.02. Molecule `CCCC1(CCC)SC(=O)NC1=O` yielded a pKa (acidic group) of 6.37. `CC(=O)[n+]1ccc(N(C)C)cc1` had a pKa (acidic group) of 9.55. Still for that read-out and setting: in the case of `Oc1ccccc1-c1cc2ccccc2cc1O` it was 7.55. For `Cc1cc(N)ccc1-c1ccc(N)cc1C`, the pKa (basic group) was 4.9. In turn, `O=C(O)c1ccccc1O[C@H]1O[C@@H](CO)[C@H](O)[C@@H](O)[C@@H]1O` had a pKa (acidic group) of 3.6. Consider `CC(=O)NS(=O)(=O)c1ccsc1C(=O)O`, for which, for the setting “acidic group”, the pKa was 3.1.

On to `COc1ccc2c(c1O)-c1c3c(cc4c1[C@H](C2)N(C)CC4)OCO3`, for which the pKa (acidic group) was determined as 10.1. On the same count and under the same terms, for `CC1(C)OC(=O)CC(=O)O1` the value was 5.15. For the setting “basic group”, `Nc1cc2ccccc2cc1[N+](=O)[O-]` showed a pKa of 1.48.

The molecule `C[NH2+]C(C)C(=O)O` (configuration not stated) registered a pKa (acidic group) of 2.22. In turn, `CC(=O)Nc1ccc2nc3ccccc3cc2c1` displayed a pKa (basic group) of 4.7. `CC1(C)[C@H]2CC[C@@]1(C)[C@@H](O)[C@@H]2C(=O)O` gave a pKa (acidic group) of 2.74. On to `Cc1nnc(C)n1O`, for which the pKa (acidic group) was found to be 6.5. With `Cc1ccc(C2=NCCC2)cc1`, the pKa (basic group) was 6.41. On the same count and under the same terms, in the case of `O=C([O-])CN1CCCCC1` it was 10.3; in that of `c1cc2c(nn1)CCCC2`, 4.3. For the molecule `Nc1ccc(-c2ccc(/N=C/c3ccccc3O)cc2)cc1`, the pKa reads like this: (acidic group) 11.1; (basic group) 7.68.

`NC(=O)Nc1[nH]c[nH+]c1C(=O)O` returned a pKa (acidic group) of 2. `CCCCCCCCCCCCN(CCO)CC(O)CC` (configuration not stated) showed a pKa (basic group) of 6.4. Where the note is “acidic group”, `C[n+]1cccc(CC(=O)c2ccccc2)c1` had a pKa of 11. For the setting “basic group”, `CC[NH2+]/C(=C/C(=O)c1cccc(S(=O)(=O)[O-])c1)n1ccnc1` returned a pKa of 4.5. Same read-out and setting: for `CC(C)C[C@H](N)C(=O)N[C@@H](Cc1c[nH]cn1)C(=O)[O-]` (H-Leu-His-OH) the value was 7.78. Molecule `O=c1c(O)c1-c1ccc(F)cc1` yielded a pKa (acidic group) of 2.07. As for `CC(N)Cc1ccc2c(c1)OCO2` (configuration not stated), the pKa (basic group) came to 9.67. The same measure, in the same setting: for `CN(C)[C@H]1CCC[C@@H]1C#N` the value was 7.02. In the case of `CSc1nc(N)c2[nH]cnc2n1`, the pKa reads like this: (acidic group) 10.2; (basic group) 3.1. In turn, `Cc1ccccc(=O)c1O` showed a pKa (acidic group) of 7.92. Regarding `CN(C)CCNCCN(C)C`, the pKa (basic group) amounted to 9.59. `O=C([O-])/C=C/c1c[nH]cn1`: for the setting “basic group”, the pKa was 5.85. Still for that read-out and setting: for `C(CN1CCOCC1)C[NH+]1CCOCC1` the value was 6.25; for `CN(C)/C=N/c1ccc([N+](=O)[O-])cc1`, 6.71; for `N=C(c1ccccc1)c1ccccc1`, 6.82. Where the note is “acidic group”, `O=C([O-])CCCC(=O)NOCc1ccccc1` displayed a pKa of 10.2. In the case of `COCC/N=C(\c1ccccc1)C(C)(C)O`, the pKa (basic group) was determined as 5.75. Same read-out and setting: for `CC1=CCCN1C` the value was 11.9.

Turning to `CN1CCCCCC1`, the pKa (basic group) was determined as 11. On the same count and under the same terms, for `CC(C)(N)C(C)(C)N` the value was 10.1.

Molecule `Cc1ccc(S(N)(=O)=O)cc1` showed a pKa (acidic group) of 9.89. For the molecule `O=c1cc[nH]cc1`, under “acidic group”, the pKa was 11.1.

For `CNNC1CCN(C(C)C)CC1`, the pKa (basic group) turned out to be 9.1. Still for that read-out and setting: in the case of `CC(=O)OC(C)CN(C)C` (configuration not stated) it was 8.31. `COc1cc(CN)c(C)cc1N` displayed a pKa (basic group) of 9.54. Consider `COc1cc(/C=N/c2ncc3nc[nH]c3n2)ccc1O`, for which the pKa came out at 8.91 (acidic group) and 2.79 (basic group). As to `COC(=O)C(N)CCONC(N)=O` (configuration not stated), the pKa (basic group) is 6.95. Regarding `Cc1cc(C(O)=C(C#N)C#N)cc(C)c1O`, the pKa (acidic group) is 2.55.

(Values after the pKa sets of Baltruschat and Czodrowski (2020).)
